In patent publication US8835377B2, “Oral delivery of peptide pharmaceutical compositions” (UGP Therapeutics, Inc., priority 2004, dated 2014):
Like-named read-outs stand apart in the source and are kept apart here.

Assay: Pharmacokinetics after duodenal injection of unformulated or formulated Dmt-DALDA in anesthetized rats (plasma, HPLC-UV)
Format: in vivo
Details: for Tmax / Cmax / AUC: Unformulated; for Cmax / AUC: rat; for AUC: trapezoidal rule; for Dmt-DALDA plasma concentration: unformulated
Protocol: In the experiments represented in the subject Figure, six anesthetized rats (which were color-coded as: red, white, blue, orange, green and yellow) were given 0.7 mL Dmt-DALDA (1.6 mg/mL) with a syringe through a 27 gauge needle into the duodenum. This injection procedure was followed due to the technical difficulty inherent in preparing capsules which can be swallowed by small animals the size of a rat. The intraduodanal injection, therefore, mimics the release of the components of an enteric-coated capsule formulation which would pass through the esophagus and stomach and release its contents in the duodenum. Three of the rats (red, white and blue) were given Unformulated Dmt-DALDA in which there were no additional components (i.e., other than the Dmt-DALDA), while the other three rats (orange, green and yellow) were given Formulated Dmt-DALDA which included, in addition to the Dmt-DALDA, 0.5M citric acid and lauroyl carnitine (10 mg/ml). Samples of blood were taken from the carotid artery through an indwelling catheter before and 5, 15, 30, 60 and 120 minutes after the administration of the respective formulations (i.e., Formulated and Unformulated). The blood samples were centrifuged and the resulting plasma supernatants were stored frozen at −20° C. […] Peptide was detected with an ultraviolet (UV) detector set at a wavelength of 210 nm. […] Table I, moreover, provides the standard deviations for the data obtained regarding each of the test rats, which standard deviations are also indicated in FIG. 1.
Table II (below) summarizes the pharmacokinetic parameters in rats of orally administered unformulated and formulated Dmt-DALDA as those terms are defined above. Cmax refers to the maximum concentration of peptide detected in the rat plasma. The area under the curve (AUC) is a measure of the extent of peptide absorption and is calculated by the trapezoidal rule from a plot of peptide concentration as a function of time. Tmax indicates when the maximum concentration of the Dmt-DALDA in the blood serum was obtained.

Cc1cc(O)cc(C)c1C[C@H](N)C(=O)N[C@H](CCCNC(=N)N)C(=O)N[C@@H](Cc1ccccc1)C(=O)N[C@@H](CCCCN)C(N)=O [unformulated]
Tmax (Avg (n = 3)): 5.00 min
Tmax (in vivo, 1.12 mg, Red rat, read-out: Tmax (converted)): 5 min
Cmax (in vivo, 1.12 mg, Avg (n = 3)): 510 ng/mL
AUC (in vivo, 1.12 mg, Avg (n = 3)): 64 ng·h/mL
Cmax (in vivo, 1.12 mg, Red rat): 1540 ng/mL
AUC (in vivo, 1.12 mg, Red rat): 192 ng·h/mL
Dmt-DALDA detected in plasma (rats given unformulated Dmt-DALDA): virtually undetectable
Dmt-DALDA plasma concentration (avg of rats, 0 min): 0.00 µg/mL
Dmt-DALDA plasma concentration (avg of rats, 15 min): 0.00 µg/mL
Dmt-DALDA plasma concentration (avg of rats, 30 min): 0.00 µg/mL
Dmt-DALDA plasma concentration (avg of rats, 60 min): 0.00 µg/mL
Dmt-DALDA plasma concentration (avg of rats, 120 min): 0.00 µg/mL
Dmt-DALDA plasma concentration (blue rat, 0 min): 0.00 µg/mL
Dmt-DALDA plasma concentration (blue rat, 5 min): 0.00 µg/mL
Dmt-DALDA plasma concentration (blue rat, 15 min): 0.00 µg/mL
Dmt-DALDA plasma concentration (blue rat, 30 min): 0.00 µg/mL
Dmt-DALDA plasma concentration (blue rat, 60 min): 0.00 µg/mL
Dmt-DALDA plasma concentration (blue rat, 120 min): 0.00 µg/mL
Dmt-DALDA plasma concentration (red rat, 0 min): 0.00 µg/mL
Dmt-DALDA plasma concentration (red rat, 15 min): 0.00 µg/mL
Dmt-DALDA plasma concentration (red rat, 30 min): 0.00 µg/mL
Dmt-DALDA plasma concentration (red rat, 60 min): 0.00 µg/mL
Dmt-DALDA plasma concentration (red rat, 120 min): 0.00 µg/mL
Dmt-DALDA plasma concentration (white rat, 0 min): 0.00 µg/mL
Dmt-DALDA plasma concentration (white rat, 5 min): 0.00 µg/mL
Dmt-DALDA plasma concentration (white rat, 15 min): 0.00 µg/mL
Dmt-DALDA plasma concentration (white rat, 30 min): 0.00 µg/mL
Dmt-DALDA plasma concentration (white rat, 60 min): 0.00 µg/mL
Dmt-DALDA plasma concentration (white rat, 120 min): 0.00 µg/mL
